Source: patent publication US5607926A, “Cephalosporin antibiotics” (Microcide Pharmaceuticals, Inc., priority 1995, dated 1997)
In brackets after ≈: the same amount, converted by molar mass. Where a name gives a salt, the structure may show the parent alone. Read-outs that look alike come from different tables or passages of the source.

Assays:
Assay type in all cases: cell-based
S. aureus ATCC 29213 = test: In vitro antibacterial evaluation, MIC by agar dilution, S. aureus ATCC 29213; settings: Staphylococcus aureus, ATCC29213
Protocol: (§1) The compounds of the invention were evaluated against several β-lactamresistant bacteria strains by determining the minimum inhibitory concentration (MIC, μg/ml) of each compound with respect to each strain. The MIC, the lowest concentration of antibiotic which inhibits growth of the test organism, was determined by the agar dilution method.
(§2) To determine the MIC for bacterial isolates, the test compound was incorporated in a series of two-fold dilutions into liquified Mueller-Hinton agar. Upon solidification, a number of different bacterial strains were spot inoculated with a replicating device onto the agar surface. […] The procedures used in these studies have been standardized by the National Committee for Clinical Laboratory Standards (NCCLS), as per the NCCLS publication entitled METHODS FOR DILUTION ANTIMICROBIAL SUSCEPTIBILITY TESTS (1991), which is incorporated herein by reference.
(§3) Aliquots of antimicrobial agents were prepared in phosphate buffered saline (PBS) at pH 7.2. Tween 20 or DMSO was used as a solubilizing vehicle as needed. Standard methods of vortexing, sonicating and gentle heat were used to facilitate solubilizing the test agent. Typically, the concentration of the stock solution was 10× that of the highest drug concentration tested. A 1.28 mg/mL stock solution was used with a subsequent highest working concentration of 128 μg/mL. Serial two-fold dilutions were done through ≤0.25 μg/mL. Each drug level was tested in duplicate. Two-fold drug dilutions were done in sterile 50 mL tubes with a final drug volume of 5 mL. Upon the addition of 45 mL of molten agar, a 10-fold dilution resulted. Two, 25 mL. plates were then poured into 15×150 mm square Petri plates with grids and allowed to harden.
(§4) A control plate with a reference drug, either cefotaxime, vancomycin or imipenem, was used as the positive growth control. Stock concentrations of reference antibiotics were prepared and frozen at -80° C. Upon preparation, the control plates were sealed and stored in the refrigerator for up to 1 week prior to use; however, imipenem control plates had to be prepared just prior to use. All test plates were used within 24 hours of preparation.
(§5) Satisfactory results were obtained where the inoculum contained about 10^4 colony forming units (cfu) ±0.5 logs. Starting with pure cultures of the test isolates on agar plates, a few isolated colonies were transferred to a tube of nutrient broth and allowed to grow 4-6 hours at 35°-36° C. to reach log-phase growth. Dropwise addition of the broth culture to PBS was done to match a 0.5 McFarland turbidity standard equal to 10^8 cfu/mL. This was further diluted ten-fold in PBS to reach a working inoculum concentration of 10^7 cfu/mL. When 1 μL of the working inoculum was applied to the agar surface a concentration of about 10^4 cfu per spot was obtained.
(§6) Disposable sterile 1 μL loops were used to inoculate test plates, with each isolate in a designated grid on the agar plate. An alternate method of inoculation involved the use of a replica plater, a device with 48 steel pins allowing the simultaneous inoculation of multiple isolates. After the spots had dried, the plates were incubated at 35°-36° C. for 16-20 hours. Endpoints were assessed as the minimum inhibitory concentration (MIC) of antimicrobial agent.

[1] = test system: S. aureus 76 (Meth^R)(lac^+); test: In vitro antibacterial evaluation, MIC by agar dilution, S. aureus 76; settings: Staphylococcus aureus, read-out: MIC
Protocol: as §1, §2, §3, §4, §5, §6

[2] = test system: S. aureus Col8A (Meth^S)(lac^-); test: In vitro antibacterial evaluation, MIC by agar dilution, S. aureus Col8A; settings: Staphylococcus aureus
Protocol: as §1, §2, §3, §4, §5, §6
The novel agents of this invention are notable for their enhanced activity against S. aureus Col and Enterococci (E. faecium and E. faecalis). The S. aureus Col strain is a high-level PBP2a producer, whereas S. aureus Col 8A, its isogenic partner, lacks PBP2a. […] Thus, the compounds of the present invention are effective against PBP2a-producing bacteria.

S. haemolyticus (Meth^R) = test: In vitro antibacterial evaluation, MIC by agar dilution, S. haemolyticus; settings: Staphylococcus haemolyticus, read-out: MIC
Protocol: as §1, §2, §3, §4, §5, §6

E. faecium ATCC 35667 = test: In vitro antibacterial evaluation, MIC by agar dilution, E. faecium ATCC 35667; settings: Enterococcus faecium, ATCC35667, read-out: MIC
Protocol: as §1, §2, §3, §4, §5, §6

E. faecalis ATCC 29212 = test: In vitro antibacterial evaluation, MIC by agar dilution, E. faecalis ATCC 29212; settings: Enterococcus faecalis, ATCC29212; E. faecalis ATCC 29212; read-out: MIC
Protocol: as §1, §2, §3, §4, §5, §6

E. coli ATCC 25922 = test: In vitro antibacterial evaluation, MIC by agar dilution, E. coli ATCC 25922; settings: Escherichia coli, ATCC25922, read-out: MIC
Protocol: as §1, §2, §3, §4, §5, §6

P. aeruginosa ATCC 27853 = test: In vitro antibacterial evaluation, MIC by agar dilution, P. aeruginosa ATCC 27853; settings: Pseudomonas aeruginosa, ATCC27853, read-out: MIC
Protocol: as §1, §2, §3, §4, §5, §6

[3] = S. aureus ATCC 29213, read-out: MIC

## N=C(N)SCc1cccc(SC2=C(C(=O)O)N3C(=O)[C@@H](NC(=O)Cc4ccccc4)[C@H]3SC2)c1 [Cmpd 80, (7R)-7-[(Phenylacetyl)amino]-3-(3-isothiouroniummethylphenylthio)-3-cephem-4-carboxylate, inner salt]
S. aureus ATCC 29213; [3]
  MIC: < 0.06 µg/mL
[1]
  MIC: 8 µg/mL
[2]
  MIC: < 0.06 µg/mL
S. haemolyticus (Meth^R)
  MIC: 8 µg/mL
E. faecium ATCC 35667
  MIC: 2 µg/mL
E. faecalis ATCC 29212
  MIC: 1 µg/mL
E. coli ATCC 25922
  MIC: 16 µg/mL
P. aeruginosa ATCC 27853
  MIC: > 32 µg/mL

## N=C(N)SCc1ccccc1SC1=C(C(=O)O)N2C(=O)[C@@H](NC(=O)CSCCCI)[C@H]2SC1 [Cmpd 134, (7R)-7-[(3-iodoprop-1-ylthioacetyl)amino]-3-(2-isothiouroniummethylphenylthio)-3-cephem-4-carboxylate, inner salt]
S. aureus ATCC 29213
  MIC: 0.125 µg/mL
[1]
  MIC: 8 µg/mL
[2]
  MIC: 0.125 µg/mL
S. haemolyticus (Meth^R)
  MIC: 16 µg/mL
E. faecium ATCC 35667
  MIC: 1 µg/mL
E. faecalis ATCC 29212
  MIC: 0.5 µg/mL
E. coli ATCC 25922
  MIC: > 32 µg/mL
P. aeruginosa ATCC 27853
  MIC: > 32 µg/mL

## O=C(Cc1ccccc1)N[C@@H]1C(=O)N2C(C(=O)O)=C(Sc3ccnn3-c3cccc([N+](=O)[O-])c3)CS[C@H]12 [Cmpd 113, (7R)-7-[(Phenylacetyl)amino]-3-(1-N-(3-nitrophenyl)pyrazol-5-ylthio)-3-cephem-4-carboxylic acid]
S. aureus ATCC 29213
  MIC: 0.125 µg/mL (≈ 0.233 µM)
[1]
  MIC: 16 µg/mL (≈ 29.8 µM)
[2]
  MIC: 0.125 µg/mL (≈ 0.233 µM)
S. haemolyticus (Meth^R)
  MIC: > 32 µg/mL
E. faecium ATCC 35667
  MIC: 4 µg/mL (≈ 7.44 µM)
E. faecalis ATCC 29212
  MIC: 1 µg/mL (≈ 1.86 µM)
E. coli ATCC 25922
  MIC: > 32 µg/mL
P. aeruginosa ATCC 27853
  MIC: > 32 µg/mL

## Nc1nnc(SCC(=O)N[C@@H]2C(=O)N3C(C(=O)O)=C(Sc4ccnn4-c4ccccc4)CS[C@H]23)s1 [Cmpd 120]
S. aureus ATCC 29213
  MIC: 0.25 µg/mL (≈ 0.456 µM)
[1]
  MIC: 16 µg/mL (≈ 29.2 µM)
[2]
  MIC: 0.25 µg/mL (≈ 0.456 µM)
S. haemolyticus (Meth^R)
  MIC: 32 µg/mL (≈ 58.4 µM)
E. faecium ATCC 35667
  MIC: 8 µg/mL (≈ 14.6 µM)
E. faecalis ATCC 29212
  MIC: 4 µg/mL (≈ 7.3 µM)
E. coli ATCC 25922
  MIC: > 32 µg/mL
P. aeruginosa ATCC 27853
  MIC: > 32 µg/mL

## Nc1nc(/C(=N/OC2CCCC2)C(=O)N[C@@H]2C(=O)N3C(C(=O)O)=C(Sc4cccnc4-c4ccccc4)CS[C@H]23)cs1 [Cmpd 86, (7R)-7-[(Z)-2-(aminothiazol-4-yl)-2-(cyclopentyloxyimino)acetamido]-3-(2-phenylpyridin-3-ylthio)-3-cephem-4-carboxylic acid]
S. aureus ATCC 29213; [3]
  MIC: 1 µg/mL (≈ 1.61 µM)
[1]
  MIC: 16 µg/mL (≈ 25.7 µM)
[2]
  MIC: 1 µg/mL (≈ 1.61 µM)
S. haemolyticus (Meth^R)
  MIC: 16 µg/mL (≈ 25.7 µM)
E. faecium ATCC 35667
  MIC: 2 µg/mL (≈ 3.21 µM)
E. faecalis ATCC 29212
  MIC: 4 µg/mL (≈ 6.42 µM)
E. coli ATCC 25922
  MIC: 2 µg/mL (≈ 3.21 µM)
P. aeruginosa ATCC 27853
  MIC: 32 µg/mL (≈ 51.4 µM)

## COc1ccc(-n2nccc2SC2=C(C(=O)O)N3C(=O)[C@@H](NC(=O)Cc4ccccc4)[C@H]3SC2)cc1 [Cmpd 114, (7R)-7-[(Phenylacetyl)amino]-3-(1-N-(4-methoxyphenyl)pyrazol-5-ylthio)-3-cephem-4-carboxylic acid]
S. aureus ATCC 29213; [3]
  MIC: 0.25 µg/mL (≈ 0.478 µM)
[1]
  MIC: 16 µg/mL (≈ 30.6 µM)
[2]
  MIC: 0.125 µg/mL (≈ 0.239 µM)
S. haemolyticus (Meth^R)
  MIC: 32 µg/mL (≈ 61.2 µM)
E. faecium ATCC 35667
  MIC: 2 µg/mL (≈ 3.83 µM)
E. faecalis ATCC 29212
  MIC: 1 µg/mL (≈ 1.91 µM)
E. coli ATCC 25922
  MIC: > 32 µg/mL
P. aeruginosa ATCC 27853
  MIC: > 32 µg/mL

## O=C(Cc1cccs1)N[C@@H]1C(=O)N2C(C(=O)O)=C(Sc3ccnn3-c3ccccc3)CS[C@H]12 [Cmpd 116, (7R)-7-[(2-thienylacetyl)amino]-3-(1-N-phenylpyrazol-5-ylthio)-3-cephem-4-carboxylic acid]
S. aureus ATCC 29213; [3]
  MIC: 0.25 µg/mL (≈ 0.501 µM)
[1]
  MIC: 16 µg/mL (≈ 32.1 µM)
[2]
  MIC: 0.125 µg/mL (≈ 0.251 µM)
S. haemolyticus (Meth^R)
  MIC: 16 µg/mL (≈ 32.1 µM)
E. faecium ATCC 35667
  MIC: 2 µg/mL (≈ 4.01 µM)
E. faecalis ATCC 29212
  MIC: 2 µg/mL (≈ 4.01 µM)
E. coli ATCC 25922
  MIC: > 32 µg/mL
P. aeruginosa ATCC 27853
  MIC: > 32 µg/mL

## CCCCCC(=O)N[C@@H]1C(=O)N2C(C(=O)O)=C(Sc3ccnn3-c3ccccc3)CS[C@H]12 [Cmpd 109, (7R)-7-[(hexanoyl)amino]-3-(1-N-phenylpyrazol-5-ylthio)-3-cephem-4-carboxylic acid]
S. aureus ATCC 29213
  MIC: 0.125 µg/mL (≈ 0.264 µM)
[1]
  MIC: 16 µg/mL (≈ 33.9 µM)
[2]
  MIC: 0.125 µg/mL (≈ 0.264 µM)
S. haemolyticus (Meth^R)
  MIC: 32 µg/mL (≈ 67.7 µM)
E. faecium ATCC 35667
  MIC: 4 µg/mL (≈ 8.46 µM)
E. faecalis ATCC 29212
  MIC: 4 µg/mL (≈ 8.46 µM)
E. coli ATCC 25922
  MIC: > 32 µg/mL
P. aeruginosa ATCC 27853
  MIC: > 32 µg/mL
